Source: patent US11702404B2, “GLP-1R modulating compounds” (priority 2019, dated 2023)
Like-named read-outs stand apart in the source and are kept apart here.

What was measured:
[1] = target: GLP-1R (Homo sapiens, UniProt P43220); assay: GLP-1R activation: cAMP increase in CHO cells stably expressing GLP-1R; assay type: cell-based
[2] = Microsomal stability, human liver microsomes (predicted hepatic clearance); details: predicted from in vitro microsomal stability data
[3] = cAMP increase, CHO cells stably expressing GLP-1R, 10 point dose response, 30 minutes incubation, read-out: EC50

Chain of GLP-1R (P43220 24-463): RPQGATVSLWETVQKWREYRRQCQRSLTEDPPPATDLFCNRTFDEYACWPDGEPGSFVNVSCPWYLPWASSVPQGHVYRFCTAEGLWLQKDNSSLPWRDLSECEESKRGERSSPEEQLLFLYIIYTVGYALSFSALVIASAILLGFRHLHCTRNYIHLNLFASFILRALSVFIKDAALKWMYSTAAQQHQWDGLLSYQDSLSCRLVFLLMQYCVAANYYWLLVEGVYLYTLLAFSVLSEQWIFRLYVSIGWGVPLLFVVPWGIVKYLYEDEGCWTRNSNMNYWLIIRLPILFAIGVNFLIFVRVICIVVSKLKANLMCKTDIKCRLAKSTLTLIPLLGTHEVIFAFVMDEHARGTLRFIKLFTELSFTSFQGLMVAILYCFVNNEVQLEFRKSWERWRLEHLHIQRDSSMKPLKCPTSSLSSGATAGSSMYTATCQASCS

EC50 [1, 3] [nM]	Predicted Hepatic Clearance (Pred. Cl.) [2] [mL/min/kg]	SMILES	EC50 ([1]; EC50 (nM)) [nM]
4.61	5.83	N#Cc1ccc(COc2cccc(-c3ccc(Cc4nc5ccc(C(=O)O)cc5n4C[C@H]4CCOC4)c(F)c3)n2)c(F)c1 [Example 196, (R)-2-(4-(6-((4-cyano-2-fluorobenzyl)oxy)pyridin-2-yl)-2-fluorobenzyl)-1-((tetrahydrofuran-3-yl)methyl)-1H-benzo[d]imidazole-carboxylic acid]	–
7.77	6	N#Cc1ccc(COc2cccc(-c3ccc(Cc4nc5ccc(C(=O)O)cc5n4C[C@@H]4CCOC4)c(F)c3)n2)c(F)c1 [Example 197, (S)-2-(4-(6-((4-cyano-2-fluorobenzyl)oxy)pyridin-2-yl)-2-fluorobenzyl)-1-((tetrahydrofuran-3-yl)methyl)-1H-benzo[d]imidazole-carboxylic acid]	–
8.69	5.17	N#Cc1ccc(COc2cccc(-c3ccc(Cc4nc5ccc(C(=O)O)cc5n4C[C@H]4CCCO4)c(F)c3)n2)c(F)c1 [Example 198, (R)-2-(4-(6-((4-cyano-2-fluorobenzyl)oxy)pyridin-2-yl)-2-fluorobenzyl)-1-((tetrahydrofuran-2-yl)methyl)-1H-benzo[d]imidazole-carboxylic acid]	–
20.8	<1.83	N#Cc1ccc(COc2ncccc2-c2cc(F)c(Cc3nc4ccc(C(=O)O)cc4n3CC3(CF)CC3)c(F)c2)c(F)c1 [Example 199, 2-(4-(2-((4-cyano-2-fluorobenzyl)oxy)pyridin-3-yl)-2,6-difluorobenzyl)-1-((1-(fluoromethyl)cyclopropyl)methyl)-1H-benzo[d]imidazole-carboxylic acid]	–
18	2.83	COCCn1c(Cc2ccc(-c3cccc(OCc4ccc(C#N)cc4F)n3)cc2F)nc2ccc(C(=O)O)nc21 [Example 200, 2-(4-(6-((4-cyano-2-fluorobenzyl)oxy)pyridin-2-yl)-2-fluorobenzyl)-3-(2-methoxyethyl)-3H-imidazo[4,5-b]pyridine-5-carboxylic acid]	–
4420	3	COCCn1c(Cc2ccc(-c3cccc(OCc4ccc(C#N)cc4F)n3)cc2F)nc2cccc(C(=O)O)c21 [Example 201, 2-(4-(6-((4-cyano-2-fluorobenzyl)oxy)pyridin-2-yl)-2-fluorobenzyl)-1-(2-methoxyethyl)-1H-benzo[d]imidazole-7-carboxylic acid]	–
3.34	5.25	COCCn1c(Cc2cc(F)c(-c3nc(OCc4ccc(C#N)cc4F)ccc3F)cc2F)nc2ccc(C(=O)O)cc21 [Example 202, 2-(4-(6-((4-cyano-2-fluorobenzyl)oxy)-3-fluoropyridin-2-yl)-2,5-difluorobenzyl)-1-(2-methoxyethyl)-1H-benzo[d]imidazole-carboxylic acid]	–
420	4.83	N#Cc1ccc(COc2cccc(-c3ccc(Cc4nc5ccc(C(=O)O)cc5n4C4COC4)c(F)c3)n2)c(F)c1 [Example 203, 2-(4-(6-((4-cyano-2-fluorobenzyl)oxy)pyridin-2-yl)-2-fluorobenzyl)-1-(oxetan-3-yl)-1H-benzo[d]imidazole-6-carboxylic acid]	–
7.37	5.33	N#Cc1ccc(COc2cccc(-c3ccc(Cc4nc5ccc(C(=O)O)cc5n4[C@H]4CCOC4)c(F)c3)n2)c(F)c1 [Example 204, (S)-2-(4-(6-((4-cyano-2-fluorobenzyl)oxy)pyridin-2-yl)-2-fluorobenzyl)-1-(tetrahydrofuran-3-yl)-1H-benzo[d]imidazole-6-carboxylic acid]	–
3.23	5	N#Cc1ccc(COc2cccc(-c3cc(F)c(Cc4nc5cc(F)c(C(=O)O)cc5n4CC4(CF)CC4)cc3F)n2)c(F)c1 [Example 205, 2-(4-(6-((4-cyano-2-fluorobenzyl)oxy)pyridin-2-yl)-2,5-difluorobenzyl)-5-fluoro-1-((1-(fluoromethyl)cyclopropyl)methyl)-1H-benzo[d]imidazole-6-carboxylic acid]	–
0.86	3.5	N#Cc1ccc(COc2cccc(-c3ccc(Cc4nc5cc(F)c(C(=O)O)cc5n4C[C@@H]4CCO4)c(F)c3)n2)c(F)c1 [Example 206]	–
35.2	6	COCCn1c(Cc2ccc(-c3cccc(OCc4ccc(C#N)cc4F)n3)cc2F)nc2cc(F)c(C(=O)O)cc21 [Example 207, 2-(4-(6-((4-cyano-2-fluorobenzyl)oxy)pyridin-2-yl)-2-fluorobenzyl)-5-fluoro-1-(2-methoxyethyl)-1H-benzo[d]imidazole-6-carboxylic acid]	–
4.67	3.83	COCCn1c(Cc2cc(F)c(-c3cccc(OCc4ccc(C#N)cc4F)n3)cc2F)nc2ccc(C(=O)O)nc21 [Example 208, 2-(4-(6-((4-cyano-2-fluorobenzyl)oxy)pyridin-2-yl)-2,5-difluorobenzyl)-3-(2-methoxyethyl)-3H-imidazo[4,5-b]pyridine-5-carboxylic acid]	–
48.8	8.5	N#Cc1ccc(COc2cccc(-c3ccc(Cc4nc5ccc(C(=O)O)cc5n4C4(CF)CC4)cc3F)n2)c(F)c1 [Example 209, 2-(4-(6-((4-cyano-2-fluorobenzyl)oxy)pyridin-2-yl)-3-fluorobenzyl)-1-(1-(fluoromethyl)cyclopropyl)-1H-benzo[d]imidazole-6-carboxylic acid]	–
≥ 1000	4.42	COCCn1c(Cc2ccc(-c3cccc(OCc4ccc(C#N)cc4F)n3)cc2F)nc2ccc(C3(C(=O)O)CC3)cc21 [Example 210, 1-(2-(4-(6-((4-cyano-2-fluorobenzyl)oxy)pyridin-2-yl)-2-fluorobenzyl)-1-(2-methoxyethyl)-1H-benzo[d]imidazol-6-yl)cyclopropane-1-carboxylic acid]	–
126	8.17	COCCn1c(Cc2cc(F)c(-c3cccnc3OCc3ccc(C#N)cc3F)cc2F)nc2ccc(C(=O)O)cc21 [Example 211, 2-(4-(2-((4-cyano-2-fluorobenzyl)oxy)pyridin-3-yl)-2,5-difluorobenzyl)-1-(2-methoxyethyl)-1H-benzo[d]imidazole-carboxylic acid]	–
80.1	<1.83	COCCn1c(Cc2ccc(-c3cccc(OCC(=O)c4ccc(Cl)cc4)n3)cc2F)nc2ccc(C(=O)O)cc21 [Example 212, 2-(4-(6-(2-(4-Chlorophenyl)-2-oxoethoxy)pyridin-2-yl)-2-fluorobenzyl)-1-(2-methoxyethyl)-1H-benzo[d]imidazole-6-carboxylic acid]	–
745	16.3	COCCn1c(Cc2ccc(-c3cccc(OCC(=O)c4ccccc4)n3)cc2F)nc2ccc(C(=O)O)cc21 [Example 214, 2-(2-fluoro-4-(6-(2-oxo-2-phenylethoxy)pyridin-2-yl)benzyl)-1-(2-methoxyethyl)-1H-benzo[d]imidazole-6-carboxylic acid]	–
110	<1.83	COCCn1c(Cc2ccc(-c3cccc(OCc4ccc(C#N)nc4)n3)cc2F)nc2ccc(C(=O)O)cc21 [Example 216, 2-(4-(6-((6-cyanopyridin-3-yl)methoxy)pyridin-2-yl)-2-fluorobenzyl)-1-(2-methoxyethyl)-1H-benzo[d]imidazole-6-carboxylic acid]	–
19.1	7.83	COCCn1c(Cc2cc(F)c(-c3cccc(OCc4ccc(C#N)cc4F)n3)cc2F)nc2cc(F)c(C(=O)O)cc21 [Example 218, 2-(4-(6-((4-cyano-2-fluorobenzyl)oxy)pyridin-2-yl)-2,5-difluorobenzyl)-5-fluoro-1-(2-methoxyethyl)-1H-benzo[d]imidazole-6-carboxylic acid]	–
0.69	2.83	N#Cc1ccc(COc2cccc(-c3cc(F)c(Cc4nc5cc(F)c(C(=O)O)cc5n4C[C@@H]4CCO4)cc3F)n2)c(F)c1 [Example 219, (S)-2-(4-(6-((4-cyano-2-fluorobenzyl)oxy)pyridin-2-yl)-2,5-difluorobenzyl)-5-fluoro-1-(oxetan-2-ylmethyl)-1H-benzo[d]imidazole-6-carboxylic acid]	–
37.8	6.5	C[C@@H](C1CC1)n1c(Cc2ccc(-c3cccc(OCc4ccc(C#N)cc4F)n3)cc2F)nc2ccc(C(=O)O)cc21 [Example 220, (S)-2-(4-(6-((4-cyano-2-fluorobenzyl)oxy)pyridin-2-yl)-2-fluorobenzyl)-1-(1-cyclopropylethyl)-1H-benzo[d]imidazole-6-carboxylic acid]	–
5.28	3.5	N#Cc1ccc(COc2cccc(-c3ccc(Cc4nc5cc(F)c(C(=O)O)cc5n4CC4(CF)CC4)c(F)c3)n2)c(F)c1 [Example 221, 2-(4-(6-((4-cyano-2-fluorobenzyl)oxy)pyridin-2-yl)-2-fluorobenzyl)-5-fluoro-1-((1-(fluoromethyl)cyclopropyl)methyl)-1H-benzo[d]imidazole-6-carboxylic acid]	–
6.79	5	C[C@H](C1CC1)n1c(Cc2ccc(-c3cccc(OCc4ccc(C#N)cc4F)n3)cc2F)nc2ccc(C(=O)O)cc21 [Example 222, (R)-2-(4-(6-((4-cyano-2-fluorobenzyl)oxy)pyridin-2-yl)-2-fluorobenzyl)-1-(1-cyclopropylethyl)-1H-benzo[d]imidazole-6-carboxylic acid]	–

SMILES	EC50 [1, 3] [nM]	Predicted Hepatic Clearance (Pred. Cl.) [2] [mL/min/kg]	EC50 ([1]; EC50 (nM)) [nM]
COCCn1c(Cc2cc(F)c(-c3ccc(F)c(OCc4ccc(C#N)cc4F)n3)cc2F)nc2ccc(C(=O)O)cc21 [Example 217, 2-(4-(6-((4-cyano-2-fluorobenzyl)oxy)-5-fluoropyridin-2-yl)-2,5-difluorobenzyl)-1-(2-methoxyethyl)-1H-benzo[d]imidazole-carboxylic acid]	–	2.75	1.72
